Experimental data reported in patent publication US6683029B1, “Halopyrimidines” (Bayer Aktiengesellschaft, priority 1999, dated 2004).

How the values were obtained:
[1] = logP by HPLC (EEC Directive 79/831 Annex V. A8)
Plutella = Plutella test/synthetic feed; format: in vivo; conditions: Plutella larvae on treated synthetic feed; concentration and time not stated
Procedure: Plutella Test/Synthetic Feed [table] […] A stated amount of the preparation of active compound of the desired concentration is pipetted onto a standardized amount of synthetic feed. After the methanol has evaporated, a film box lid covered with about 100 Plutella eggs is placed onto each cavity. The freshly hatched larvae migrate onto the treated synthetic feed. After the desired period of time, the kill in % is determined. 100% means that all animals have been killed; 0% means that none of the animals have been killed.

Work on `CON=C(C(=O)OC)c1ccccc1Oc1ncnc(Oc2cccc(F)c2)c1F` [Example 1, Methyl 2-{2-[6-(3-fluorophenoxy)-5-fluoro-pyrimidin-4-yloxy]-phenyl}-2-methoxyiminoacetate] yielded a chromatographic logP [1] of 3.46.

In the case of `CON=C(C(=O)OC)c1ccccc1Oc1ncnc(Oc2cc(Cl)ccc2Cl)c1F` [Example 10], the “activity (kill)” value (Plutella) is reported as “good activity”.

For `CCSCc1ccccc1Oc1ncnc(Oc2ccccc2C(=NOC)C(=O)OC)c1F` [Example 16], the logP ([1]; HPLC, gradient method, acetonitrile/0.1% aqueous phosphoric acid) was 3.97.
